From article PMC5566973 (Frontiers in Pharmacology, 2017)

Experiments:
human MRP2 = biological target: T1, human MRP2 (Homo sapiens, UniProt Q92887); test: Vesicular transport assay, Sf9 membrane vesicles expressing human MRP2; format: in vitro ADME; details: probe at 50 μM
T1 construct: purchased GenoMembrane (Kanagawa, Japan); host or cells: Sf9
Description: (§1) The vesicular transport assay was implemented as described in the GenoMembrane™ vesicular transport kit protocol (GenoMembrane, Kanagawa, Japan) with minor changes. Briefly, vesicle stocks were thawed and diluted with assay buffer (50 mM MOPS-Tris, 70 mM KCl, and 7.5 mM MgCl2). […] MgAMP instead of MgATP was used as a control. Apart from these, 4 mM glutathione was also included in BCRP and MRP2 assays. Transport was terminated with ice cold assay buffer, and then samples were quickly transferred to a filter plate. Wells were immediately washed 5 times with 200 μL assay buffer and dried. The vesicles on the plate were dissolved in 50 μL of 80% methanol and centrifuged at 2,000 rpm for 2 min after collection, and repeating the above procedures. Mixed the two filtrates together and added the pre-cooled methanol. After centrifugation at 12,000 rpm for 5 min at 4°C, a 5 μL aliquot of supernatant was injected into the UPLC-ESI-MS/MS system for analysis. Furthermore, the uptake of NMQ (MDR1), LY (BCRP), and E217βG (MRP2) was used to evaluate the activity of specific vesicles.

[1] = Urinary and fecal excretion in rats; format: in vivo, Sprague-Dawley rats; details: for Cumulative excretion of the analyte, SUM of urine and feces: within 72 h
Description: Access to water was maintained all the time. Samples including blank urine and feces before dosing, urine and feces from 0 to 24 h, 24 to 48 h, and 48 to 72 h after dosing were collected and stored at −80°C until analysis.
Urine samples were thawed and an aliquot of 100 μL was processed for detection as described in Section Drug Analysis. Feces were homogenized and then weighed, added 6-folds of acetonitrile, extracted by ultrasonic wave for 1 h and then centrifuged. An aliquot of 100 μL was also processed for detection as described in Section Drug Analysis.

human MDR1 = biological target: T2, human MDR1 (Homo sapiens, UniProt P08183); test: Vesicular transport assay, Sf9 membrane vesicles expressing human MDR1; format: in vitro ADME; details: probe at 5 μM
T2 construct: purchased GenoMembrane (Kanagawa, Japan); host or cells: Sf9
T2 sequence (P08183 whole entry): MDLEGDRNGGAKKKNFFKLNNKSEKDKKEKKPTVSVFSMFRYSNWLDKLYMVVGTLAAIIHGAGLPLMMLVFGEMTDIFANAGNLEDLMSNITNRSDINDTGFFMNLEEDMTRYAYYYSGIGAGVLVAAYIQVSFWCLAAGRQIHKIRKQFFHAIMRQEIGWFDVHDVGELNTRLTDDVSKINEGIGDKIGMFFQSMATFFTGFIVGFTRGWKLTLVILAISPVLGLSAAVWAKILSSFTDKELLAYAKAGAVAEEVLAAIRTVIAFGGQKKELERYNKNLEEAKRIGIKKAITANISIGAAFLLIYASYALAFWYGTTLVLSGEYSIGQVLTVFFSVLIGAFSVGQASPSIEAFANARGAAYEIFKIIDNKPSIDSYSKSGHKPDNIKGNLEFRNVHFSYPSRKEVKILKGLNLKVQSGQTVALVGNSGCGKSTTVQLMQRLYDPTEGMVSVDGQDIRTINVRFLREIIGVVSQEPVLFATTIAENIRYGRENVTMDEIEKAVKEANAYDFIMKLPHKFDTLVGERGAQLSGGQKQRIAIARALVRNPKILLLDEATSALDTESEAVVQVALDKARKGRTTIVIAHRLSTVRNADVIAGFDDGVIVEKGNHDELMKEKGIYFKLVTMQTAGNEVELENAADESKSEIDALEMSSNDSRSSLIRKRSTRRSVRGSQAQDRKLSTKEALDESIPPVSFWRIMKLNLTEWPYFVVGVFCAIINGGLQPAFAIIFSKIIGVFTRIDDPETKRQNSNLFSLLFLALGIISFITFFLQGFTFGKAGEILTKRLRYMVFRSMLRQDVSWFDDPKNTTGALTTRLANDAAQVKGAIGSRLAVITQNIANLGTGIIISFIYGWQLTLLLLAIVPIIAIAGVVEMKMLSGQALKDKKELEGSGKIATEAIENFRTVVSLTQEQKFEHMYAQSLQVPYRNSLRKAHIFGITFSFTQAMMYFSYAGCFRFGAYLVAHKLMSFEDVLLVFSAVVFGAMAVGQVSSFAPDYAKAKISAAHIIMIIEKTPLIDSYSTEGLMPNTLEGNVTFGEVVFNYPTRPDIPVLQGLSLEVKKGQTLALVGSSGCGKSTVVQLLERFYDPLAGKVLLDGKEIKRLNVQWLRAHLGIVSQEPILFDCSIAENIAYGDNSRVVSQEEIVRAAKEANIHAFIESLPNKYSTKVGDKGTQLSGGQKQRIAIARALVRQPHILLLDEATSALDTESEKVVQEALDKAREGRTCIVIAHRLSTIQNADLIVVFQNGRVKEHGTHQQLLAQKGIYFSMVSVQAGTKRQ
Description: as §1

Caco-2 cell monolayers = details: transcellular flux marker; ref Shen et al., 2015; cited from earlier work
human BCRP = biological target: T3, human BCRP (Homo sapiens, UniProt Q9UNQ0); test: Vesicular transport assay, Sf9 membrane vesicles expressing human BCRP; format: in vitro ADME; details: 10 μM, MgATP vs MgAMP
T3 construct: purchased GenoMembrane (Kanagawa, Japan); host or cells: Sf9
T3 sequence (Q9UNQ0 1-655): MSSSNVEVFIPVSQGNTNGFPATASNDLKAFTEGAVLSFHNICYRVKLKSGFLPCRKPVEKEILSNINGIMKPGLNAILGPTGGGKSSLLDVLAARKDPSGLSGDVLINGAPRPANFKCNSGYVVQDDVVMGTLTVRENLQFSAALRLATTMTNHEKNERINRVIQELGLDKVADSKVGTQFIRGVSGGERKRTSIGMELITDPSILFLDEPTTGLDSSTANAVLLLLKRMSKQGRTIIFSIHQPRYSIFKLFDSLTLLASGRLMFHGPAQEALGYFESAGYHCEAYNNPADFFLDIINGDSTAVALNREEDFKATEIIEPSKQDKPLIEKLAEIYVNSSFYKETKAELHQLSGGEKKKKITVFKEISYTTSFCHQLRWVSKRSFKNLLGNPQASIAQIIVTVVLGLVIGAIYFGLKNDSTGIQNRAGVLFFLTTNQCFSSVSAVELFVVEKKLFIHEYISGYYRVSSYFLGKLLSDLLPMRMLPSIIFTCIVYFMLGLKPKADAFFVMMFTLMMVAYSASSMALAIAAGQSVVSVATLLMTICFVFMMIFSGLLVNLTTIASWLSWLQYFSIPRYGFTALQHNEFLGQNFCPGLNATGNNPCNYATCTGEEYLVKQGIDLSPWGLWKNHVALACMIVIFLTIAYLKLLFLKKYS
Description: as §1

[2] = after oral harmaline 40.0 mg/kg, 24 h
[3] = after oral harmaline 40.0 mg/kg, 48 h
[4] = after oral harmaline 40.0 mg/kg, 72 h
[5] = after oral harmaline 40.0 mg/kg
[6] = after oral harmine 40.0 mg/kg, 24 h
[7] = after oral harmine 40.0 mg/kg, 48 h
[8] = after oral harmine 40.0 mg/kg, 72 h

T1 sequence (Q92887 whole entry): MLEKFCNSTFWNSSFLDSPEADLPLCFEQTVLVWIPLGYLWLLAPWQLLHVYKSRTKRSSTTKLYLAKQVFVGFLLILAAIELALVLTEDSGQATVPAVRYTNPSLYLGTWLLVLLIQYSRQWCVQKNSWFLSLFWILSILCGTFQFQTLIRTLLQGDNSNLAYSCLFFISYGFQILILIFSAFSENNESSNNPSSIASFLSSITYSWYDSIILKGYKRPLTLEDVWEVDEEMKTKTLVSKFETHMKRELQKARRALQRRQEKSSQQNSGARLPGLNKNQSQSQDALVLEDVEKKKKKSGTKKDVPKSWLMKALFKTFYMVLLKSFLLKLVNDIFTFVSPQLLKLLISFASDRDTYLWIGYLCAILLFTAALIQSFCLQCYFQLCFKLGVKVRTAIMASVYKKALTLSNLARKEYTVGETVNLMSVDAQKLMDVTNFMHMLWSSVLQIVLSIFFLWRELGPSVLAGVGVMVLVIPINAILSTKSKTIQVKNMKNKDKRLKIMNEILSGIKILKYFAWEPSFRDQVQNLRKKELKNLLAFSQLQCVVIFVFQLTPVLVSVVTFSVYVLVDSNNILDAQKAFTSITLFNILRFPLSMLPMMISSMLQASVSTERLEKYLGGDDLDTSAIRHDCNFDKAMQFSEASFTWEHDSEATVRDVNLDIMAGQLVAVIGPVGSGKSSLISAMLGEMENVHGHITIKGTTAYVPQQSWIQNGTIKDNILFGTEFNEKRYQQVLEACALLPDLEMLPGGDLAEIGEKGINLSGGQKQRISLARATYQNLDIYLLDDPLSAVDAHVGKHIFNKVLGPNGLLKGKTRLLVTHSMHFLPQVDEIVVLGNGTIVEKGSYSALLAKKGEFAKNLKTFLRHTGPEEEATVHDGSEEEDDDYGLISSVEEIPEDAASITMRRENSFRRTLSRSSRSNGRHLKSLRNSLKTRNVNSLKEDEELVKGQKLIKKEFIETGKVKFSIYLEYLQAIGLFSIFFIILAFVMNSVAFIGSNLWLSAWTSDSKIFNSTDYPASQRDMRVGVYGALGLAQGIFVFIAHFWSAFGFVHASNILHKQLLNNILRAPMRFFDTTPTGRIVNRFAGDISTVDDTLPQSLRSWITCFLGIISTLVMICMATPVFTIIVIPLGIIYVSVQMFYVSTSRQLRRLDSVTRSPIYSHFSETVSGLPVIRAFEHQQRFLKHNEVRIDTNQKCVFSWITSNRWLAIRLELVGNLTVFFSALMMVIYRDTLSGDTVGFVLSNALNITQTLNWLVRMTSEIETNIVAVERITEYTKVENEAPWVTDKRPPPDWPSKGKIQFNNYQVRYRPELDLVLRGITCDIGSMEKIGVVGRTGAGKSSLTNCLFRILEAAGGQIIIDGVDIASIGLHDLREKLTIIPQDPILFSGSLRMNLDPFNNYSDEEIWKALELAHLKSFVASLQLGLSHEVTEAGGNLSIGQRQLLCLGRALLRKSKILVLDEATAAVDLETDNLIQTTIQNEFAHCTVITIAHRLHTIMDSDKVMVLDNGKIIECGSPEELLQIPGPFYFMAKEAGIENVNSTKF

Compound	Cumulative excretion in feces (%) of the analyte [1, 2]	Cumulative excretion in urine (%) of the analyte [1, 2]	Cumulative excretion in feces (%) of the analyte [1, 3]	Cumulative excretion in urine (%) of the analyte [1, 3]	Cumulative excretion in feces (%) of the analyte [1, 4]	Cumulative excretion in urine (%) of the analyte [1, 4]	Cumulative excretion of the analyte, SUM of urine and feces [1, 5]	also measured
C[C@]12CC[C@@H]3c4ccc(O)cc4CC[C@H]3[C@@H]1CC[C@@H]2O[C@@H]1O[C@H](C(=O)O)[C@@H](O)[C@H](O)[C@H]1O [E217βG, estradiol-17 β-glucuronide, reference compound]	–	–	–	–	–	–	–	uptake ratio (UR) (human MRP2): 7.71
CC1=NCCc2c1[nH]c1cc(O)ccc21 [Harmalol]	1.73 ± 1.01%	1.16 ± 0.81%	1.87 ± 1.04%	2.03 ± 2.12%	1.89 ± 1.04%	2.30 ± 2.36%	4.18 ± 2.67%	–
Cc1[nH]ccc2c1[nH]c1cc(=O)ccc12 [Harmol]	1.24 ± 0.51%	0.23 ± 0.42%	1.64 ± 0.73%	0.50 ± 0.55%	1.70 ± 0.75%	0.65 ± 0.56%	2.35 ± 0.91%	Cumulative excretion in feces (%) of the analyte [1, 6]: 5.66 ± 2.96%; Cumulative excretion in urine (%) of the analyte [1, 6]: 2.51 ± 2.82%; Cumulative excretion in feces (%) of the analyte [1, 7]: 7.69 ± 3.33%; Cumulative excretion in urine (%) of the analyte [1, 7]: 4.63 ± 4.53%; Cumulative excretion in feces (%) of the analyte [1, 8]: 8.38 ± 3.47%; Cumulative excretion in urine (%) of the analyte [1, 8]: 5.42 ± 5.19%; Cumulative excretion of the analyte, SUM of urine and feces ([1]; after oral harmine 40.0 mg/kg): 13.80 ± 5.71%
C=C[C@H]1C[N+]2(C)CC[C@H]1C[C@@H]2[C@@H](O)c1ccnc2ccc(OC)cc12 [NMQ, N-methylquinidine, reference compound]	–	–	–	–	–	–	–	uptake ratio (UR) (human MDR1): 2.05
CC(C)NCC(O)COc1cccc2ccccc12 (stereo not shown) [propranolol, reference compound]	–	–	–	–	–	–	–	PappAB (Caco-2 cell monolayers): 41.90 ± 3.30 × 10^−6 cm/s
lucifer yellow [LY, reference compound]	–	–	–	–	–	–	–	uptake ratio (UR) (human BCRP): 19.66
